Values joined by “and” are separate entries in the source; they are usually repeats but may differ in a detail not shown here. Equal entries are not always repeated.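 Compound exposure: 48 hours, 5 concentrations, 96-well plates. GI50 is the concentration that inhibits growth by half. TGI: total growth inhibition.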
Experiments:
Experiment in all cases: NCI anticancer screen, dose series, 48 h
[1] = system: MDA-MB-468 breast
[2] = system: MDA-MB-435
[3] = system: SNB-75 CNS
[4] = system: HS 578T breast
[5] = system: OVCAR-5 ovarian
[6] = system: RXF 393 renal
[7] = system: UO-31 renal
[8] = system: HCC-2998 colon
[9] = system: SF-295 CNS
[10] = system: A498 renal
[11] = system: T-47D breast
[12] = system: RPMI-8226 leukemia
[13] = system: OVCAR-4 ovarian
[14] = system: SNB-19 CNS
[15] = system: K-562 leukemia
[16] = system: SK-MEL-28 melanoma
[17] = system: SR leukemia
[18] = system: HT29 colon
[19] = system: CAKI-1 renal
[20] = system: SK-OV-3 ovarian
[21] = system: MALME-3M melanoma
[22] = system: LOX IMVI melanoma
[23] = system: UACC-62 melanoma
[24] = system: 786-0 renal
[25] = system: EKVX NSCLC
[26] = system: NCI-H226 lung
[27] = system: MDA-MB-231 breast
[28] = system: CCRF-CEM leukemia
[29] = system: HOP-62 NSCLC
[30] = system: BT-549 breast
[31] = system: PC-3 prostate
[32] = system: MCF7 breast
[33] = system: M14 melanoma
[34] = system: SF-539 CNS
[35] = system: HL-60(TB) leukemia
[36] = system: COLO 205 colon
[37] = system: HCT-15 colon
[38] = system: DU-145 prostate
[39] = system: MOLT-4 leukemia
[40] = system: OVCAR-3 ovarian
[41] = system: TK-10 renal
[42] = system: NCI-H460 lung
[43] = system: NCI-H522 lung
[44] = system: SW-620 colon
[45] = system: A549 NSCLC
[46] = system: ACHN renal
[47] = system: SF-268 CNS
[48] = system: NCI-H23 lung
[49] = system: SK-MEL-5 melanoma
[50] = system: HOP-92 NSCLC
[51] = system: HCT-116 colon
[52] = system: UACC-257 melanoma
[53] = system: SN12C renal
[54] = system: OVCAR-8 ovarian
[55] = system: KM12 colon
[56] = system: U251 CNS
[57] = system: IGROV1 ovarian

Compound: CC#CC(=O)N1CC[C@@H](n2c(=O)n(-c3ccc(Oc4ccccc4)cc3)c3c(N)ncnc32)C1
- GI50 [1]: 10.5 µM
- TGI [1]: 60.2 µM

Compound: Cc1nc2sc(C(=O)Nc3cccc(Br)c3)c(N)c2cc1C(O)c1ccccc1 (stereo unspecified)
- GI50 [1]: 0.38 µM
- TGI [1]: 10.2 µM

Compound: Nc1c2ccccc2nc2ccccc12 (tested in a mixture with another compound)
- GI50 [1]: 1.07 µM
- TGI [1]: 3.21 µM

Compound: Fc1cccc(-c2[nH]nc3nc(Nc4cccnc4)sc23)c1
- GI50 [1]: 0.36 µM
- TGI [1]: 3 µM

Compound: N#Cc1nn(-c2cc(=O)[nH]c3ccc(Br)cc23)c(N)c1C#N
- GI50 [1]: > 100 µM
- TGI [1]: > 100 µM

Compound: C=C(C)[C@@H]1CC[C@]2(C(N)=O)CC[C@]3(C)[C@H](CC[C@@H]4[C@@]5(C)C/C(=C/c6cccnc6)[C@H](O)C(C)(C)[C@@H]5CC[C@]43C)[C@@H]12
- GI50 [1]: 4.05 µM
- TGI [1]: > 100 µM

Compound: Oc1c(I)cc(I)cc1CN(Cc1ccccn1)Cc1ccccn1
- GI50 [1]: 1.31 µM
- TGI [1]: 7.28 µM

Compound: COc1cc(N2CCC(N3CCN(C)CC3)CC2)ccc1Nc1ncc(Cl)c(Nc2ccccc2S(=O)(=O)C(C)C)n1
- GI50 [1]: 0.483 µM
- TGI [1]: 1.78 µM

Compound: C/C(=C\c1ccn(-c2ccc(N)cc2F)n1)[C@@H]1C[C@@H]2O[C@]2(C)CCC[C@H](C)[C@H](O)[C@@H](C)C(=O)C(C)(C)[C@@H](O)CC(=O)O1
- GI50 [1]: 0.0263 µM
- TGI [1]: 0.3 µM

Compound: CCOCCOC[C@H]1CCCN(c2ccnc3sc(C(N)=O)c(N)c23)C1
- GI50 [1]: 3.44 µM
- TGI [1]: > 100 µM

Compound: Cc1ccc(C2=NN(c3ccc(S(N)(=O)=O)cc3)C(c3cn(-c4ccccc4)nc3-c3ccccc3)C2)cc1 (stereo unspecified)
- GI50 [1]: 24.3 µM
- TGI [1]: > 100 µM

Compound: CCN1CCN(c2ccc(Nc3ncc4ccc5ncn(C(C)C)c5c4n3)nc2)CC1
- GI50 [1]: 0.177 µM
- TGI [1]: 0.444 µM

Compound: CCN(CC)c1ccnc(CNCCSC(c2ccccc2)(c2ccccc2)c2ccc(OC)cc2)c1
- GI50 [2]: 1.44 µM
- TGI [2]: 5.12 µM
- GI50 [3]: 1.65 µM
- TGI [3]: 9.09 µM
- GI50 [4]: 2.26 µM
- TGI [4]: 6.8 µM
- GI50 [5]: 2.93 µM
- TGI [5]: 10.6 µM
- GI50 [6]: 2.4 µM
- TGI [6]: 7.2 µM
- GI50 [7]: 3.86 µM
- TGI [7]: 17 µM
- GI50 [8]: 1.79 µM
- TGI [8]: 3.41 µM
- GI50 [9]: 2.2 µM
- TGI [9]: 5.86 µM
- GI50 [10]: 13.9 µM
- TGI [10]: 29.7 µM
- GI50 [11]: 2.94 µM
- TGI [11]: 12 µM
- GI50 [12]: 2.3 µM
- TGI [12]: 6.43 µM
- GI50 [13]: 4.32 µM
- TGI [13]: 20.6 µM
- GI50 [14]: 4.3 µM
- TGI [14]: 15.6 µM
- GI50 [15]: 2.68 µM
- TGI [15]: 8.97 µM
- GI50 [1]: 1.66 µM
- TGI [1]: 4.49 µM
- GI50 [16]: 4.2 µM
- TGI [16]: 15 µM
- GI50 [17]: 2.11 µM
- TGI [17]: 12.4 µM
- GI50 [18]: 1.98 µM
- TGI [18]: 4.45 µM
- GI50 [19]: 3.63 µM
- TGI [19]: 16 µM
- GI50 [20]: 3.22 µM
- TGI [20]: 13.2 µM
- GI50 [21]: 2.82 µM
- TGI [21]: 9.49 µM
- GI50 [22]: 1.9 µM
- TGI [22]: 3.86 µM
- GI50 [23]: 4.43 µM
- TGI [23]: 17 µM
- GI50 [24]: 1.75 µM
- TGI [24]: 4.15 µM
- GI50 [25]: 3.61 µM
- TGI [25]: 14.9 µM
- GI50 [26]: 3.1 µM
- TGI [26]: 13.6 µM
- GI50 [27]: 2.32 µM
- TGI [27]: 5.78 µM
- GI50 [28]: 3.13 µM
- TGI [28]: 10.8 µM
- GI50 [29]: 3.09 µM
- TGI [29]: 12.3 µM
- GI50 [30]: 2.62 µM
- TGI [30]: 6.87 µM
- GI50 [31]: 3.19 µM
- TGI [31]: 13.3 µM
- GI50 [32]: 1.3 µM
- TGI [32]: 5.96 µM
- GI50 [33]: 1.85 µM
- TGI [33]: 4.86 µM
- GI50 [34]: 2.15 µM
- TGI [34]: 4.27 µM
- GI50 [35]: 1.65 µM
- TGI [35]: 4.24 µM
- GI50 [36]: 1.72 µM
- TGI [36]: 3.52 µM
- GI50 [37]: 2.87 µM
- TGI [37]: 10.8 µM
- GI50 [38]: 3.78 µM
- TGI [38]: 13.6 µM
- GI50 [39]: 2.19 µM
- TGI [39]: 7.13 µM
- GI50 [40]: 3.18 µM
- TGI [40]: 11 µM
- GI50 [41]: 5.9 µM
- TGI [41]: 19.2 µM
- GI50 [42]: 3.12 µM
- TGI [42]: 10.3 µM
- GI50 [43]: 2.44 µM
- TGI [43]: 7.29 µM
- GI50 [44]: 3.14 µM
- TGI [44]: 13.2 µM
- GI50 [45]: 3.74 µM
- TGI [45]: 17.1 µM
- GI50 [46]: 4.52 µM
- TGI [46]: 17.2 µM
- GI50 [47]: 4.35 µM
- TGI [47]: 19 µM
- GI50 [48]: 3.04 µM
- TGI [48]: 10.2 µM
- GI50 [49]: 1.68 µM
- TGI [49]: 3.06 µM
- GI50 [50]: 2.36 µM
- TGI [50]: 9.84 µM
- GI50 [51]: 2 µM
- TGI [51]: 8.32 µM
- GI50 [52]: 4.04 µM
- TGI [52]: 15.9 µM
- GI50 [53]: 3.43 µM
- TGI [53]: 13.6 µM
- GI50 [54]: 2.71 µM
- TGI [54]: 11.2 µM
- GI50 [55]: 3.41 µM
- TGI [55]: 12.4 µM
- GI50 [56]: 2.92 µM
- TGI [56]: 10.7 µM
- GI50 [57]: 3.82 µM
- TGI [57]: 15.7 µM

Compound: CNC(=O)CN1CCC(Oc2cc3c(Nc4cccc(Cl)c4F)ncnc3cc2OC)CC1
- GI50 [1]: < 0.01 µM and 0.00403 µM

Compound: COc1ccc2nc3ccccc3c(NCc3ccc(C)cc3)c2c1
- GI50 [1]: 1.81 µM
- TGI [1]: 3.92 µM

Compound: COc1cc(C)c(NC(=O)CN(C)C)cc1Nc1nc(Nc2cccc(F)c2C(N)=O)c2cc[nH]c2n1
- GI50 [1]: 0.263 µM
- TGI [1]: 1.21 µM

Compound: C=CCSSc1ncnc2c1ncn2C1OC(CO)C(O)C1O (stereo unspecified)
- GI50 [1]: 0.217 µM
- TGI [1]: 4.46 µM

Compound: COc1ccc(C2CC(=O)c3c(O)c(OC)c(OC)c(OC)c3O2)cc1O (stereo unspecified)
- GI50 [1]: 1.51 µM
- TGI [1]: > 100 µM

Compound: CCN(CC)CC[n+]1cc2cc(OC)c(OC)cc2c2ccc3cc4c(cc3c21)OCO4
- GI50 [1]: 0.241 µM
- TGI [1]: 1.09 µM

Compound: O=C(NCCCCCCNC(=O)OCc1ccc2c(Cl)cc(Cl)c(O)c2n1)OCc1ccc2c(Cl)cc(Cl)c(O)c2n1
- GI50 [1]: 0.59 µM
- TGI [1]: 2.14 µM

Compound: Clc1ccc2c(NCCNc3nc(N4CCCC4)nc4ccccc34)ccnc2c1
- GI50 [1]: 1.2 µM
- TGI [1]: 3.43 µM

Compound: O=c1cc(-c2cccc(OCc3ccccc3)c2)[nH]c2cc3c(cc12)OCO3
- GI50 [1]: 9.59 µM
- TGI [1]: > 100 µM

Compound: Cc1nn(C)c2cc(N(C)c3ccnc(Nc4cccc(S(N)(=O)=O)c4)n3)ccc12
- GI50 [1]: 4.19 µM
- TGI [1]: 13.7 µM

Compound: C=C1C(=O)O[C@H]2[C@H]1CC/C(COC(=O)NCc1cc(OC)cc(OC)c1)=C\CC[C@@]1(C)O[C@@H]21
- GI50 [1]: 0.58 µM
- TGI [1]: 2.33 µM

Compound: Cc1cc2nc(C(Cl)Cl)nc(-c3ccccc3)n2n1
- GI50 [1]: 1.81 µM
- TGI [1]: 4.45 µM

Compound: CC(CN)[C@@H]1CC[C@]2(CO)CC[C@]3(C)[C@H](CC[C@@H]4[C@@]5(C)CCC(N)C(C)(C)[C@@H]5CC[C@]43C)[C@@H]12 (stereo partly specified)
- GI50 [1]: 1.59 µM
- TGI [1]: 3.25 µM

Compound: COc1cnc2c(c1)C(=O)c1c-2n(CCCNC(C)C)c(=O)c2cc([N+](=O)[O-])ccc12
- GI50 [1]: 0.0206 µM
- TGI [1]: 0.0603 µM

Compound: C[C@@H]1OCC2(CCN(c3cnc(Sc4ccnc(N)c4Cl)c(N)n3)CC2)[C@@H]1N
- GI50 [1]: 14.8 µM
- TGI [1]: > 100 µM

Compound: COc1ccc2nc(-c3cc4c([nH]c5ccccc54)c(-c4ccc(F)c(F)c4)n3)[nH]c2c1
- GI50 [1]: 1.7 µM
- TGI [1]: 3.92 µM

Compound: Oc1c(CN2CCN(c3ccccc3F)CC2)cc(Br)c2cccnc12
- GI50 [1]: 0.673 µM
- TGI [1]: 6.84 µM

Compound: O=[N+]([O-])c1cc2c(c([N+](=O)[O-])c1)Nc1ccccc1O2
- GI50 [1]: 2.14 µM
- TGI [1]: 9.84 µM

Compound: O=S(=O)(Nc1ccccn1)c1ccc(N=Nc2ccc(O)c3ncccc23)cc1
- GI50 [1]: 2.23 µM
- TGI [1]: 8.44 µM

Compound: O=C(O)c1ccccc1Nc1ccc2nnc(-c3ccncc3)n2n1
- GI50 [1]: 1.96 µM
- TGI [1]: 4.59 µM

Compound: Oc1ccc(-c2nnc(SCc3ccc(O)c4ncccc34)n2-c2ccccc2)cc1
- GI50 [1]: 0.421 µM
- TGI [1]: 2.83 µM

Compound: CN1CCN(CC(=O)N2c3cccc4cccc(c34)N(C(=O)CN3CCN(C)CC3)C2c2cn(-c3ccccc3)nc2-c2cccc([N+](=O)[O-])c2)CC1
- GI50 [1]: 1.61 µM
- TGI [1]: 3.06 µM

— PubChem BioAssay (NCI)
